The results in this text go back to publication PMC8588536, “Iridal-Type Triterpenoids Displaying Human Neutrophil Elastase Inhibition and Anti-Inflammatory Effects from Belamcanda chinensis” (Molecules, 2021).

The structures appear in SMILES notation.

The subject of test [1] is IL-1β in LPS-stimulated RAW264.7 cells. Nature of the test: IL-1β concentration by ELISA. It counts as cell-based, mouse. As to conditions: 1 or 3 µg/mL 2 h prior to LPS 1 µg/mL for 16 h; n = 6, p < 0.05. The method, then: (§1) RAW264.7 cell (2 × 10^5 cells/well) were cultured in a 6-well plate for 24 h and treated with compounds (1 or 3 µg/mL) 2 h prior to LPS treatment, followed by LPS (1 µg/mL) for 16 h. The concentration of pro-inflammatory cytokines in the collected supernatant was quantified using an ELISA kit (R&D system, Minneapolis, MN, USA) according to the manufacturer’s instructions. Briefly, 50 μL of assay diluent, sample, and standards were added to the ELISA well plate, which were pre-coated with anti-mouse IL-1β and TNF-α antibody. The plates were then covered with adhesive strip, agitated, and incubated for 2 h at room temperature. The ELISA well-plate was washed five times with a wash buffer, then 100 μL of mouse IL-1β and TNF-α conjugates was added and incubated at room temperature for 2 h. The plate was washed five times, 100 μL of substrate solution was added to each well, and incubated for 30 min in the dark. The reaction was quenched by the addition of 100 μL stop solution to each well, and the absorbance was read 450 nm/570 nm with an ELISA reader (Molecular Devices, Sunnyvale, CA, USA).

Test [2] relates to LPS-stimulated RAW264.7 cells. The test is described as follows: LPS-induced morphological changes (macrophage activation). Type of test: cell-based, mouse. Conditions: pre-treatment 1 or 3 µg/mL. The method, then:
The mouse macrophage cell line RAW264.7 was obtained from the American Type Culture Collection (ATCC, Manassas, VA, USA). The cells were cultured in DMEM supplemented with 10% fetal bovine serum (FBS), penicillin (100 U/mL), and streptomycin (100 μg/mL) at 37 °C with 5% CO2. The medium was replaced every 2 days. After treatment with chemicals, the cell morphological changes were observed under a microscope and images are captured before cell viability assay.

The subject of test [3] is TNF-α mRNA in LPS-stimulated RAW264.7 cells. The test is described as follows: TNF-α mRNA expression by RT-PCR. Type of test: cell-based, mouse. Conditions: 1 or 3 µg/mL, n = 6, p < 0.05. The procedure:
Total RNA was isolated from cultured RAW264.7 cells using TRIzol reagent (Ambion®, Carlsbad, CA, USA) according to the manufacturer’s instructions. First strand cDNA was synthesized from the total RNA (3 μg) using oligo dT (DiaStar RT Kit, SolGent, Daejeon, Korea) and was used as a template for PCR amplification with G-Taq polymerase (Cosmogenetech, Seoul, Korea). The first-strand cDNA was quantified using a spectrophotometer (NanoDrop® ND-1000, NanoDrop Technologies, Wilmington, […], USA). The quantified cDNA was used as a template. PCR assay was performed with specific primers for inducible nitric oxide (iNOS), IL-1β, and TNF-α. The PCR steps included initial denaturation at 94 °C for 5 min, then 28 cycles at 94 °C for 30 s, 57 °C for 30 s, and 72 °C for 30 s, and a final extension step at 72 °C for 10 min. The amplified PCR products were separated in 1.5% agarose gel, and the gel was stained with ethidium bromide. The bands were visualized using the iBright^TM CL1500 imaging system (Thermo Scientific Fisher/Life Technologies Holdings Pte Ltd., Singapore). The DNA fragments were directly sequenced with the ABI PRISM® 3100-Avant Genetic Analyzer (Applied Biosystems, Carlsbad, CA, USA).

Test [4] deals with TNF-α in LPS-stimulated RAW264.7 cells. The test is described as follows: TNF-α concentration by ELISA. It counts as cell-based, mouse. Conditions: 1 or 3 µg/mL 2 h prior to LPS 1 µg/mL for 16 h; n = 6, p < 0.05. The procedure: as §1
The target of test [5] is T1, Human neutrophil elastase (HNE) (Homo sapiens, UniProt P08246).
T1 construct: purchased Sigma-Aldrich
T1 sequence (P08246 30-267): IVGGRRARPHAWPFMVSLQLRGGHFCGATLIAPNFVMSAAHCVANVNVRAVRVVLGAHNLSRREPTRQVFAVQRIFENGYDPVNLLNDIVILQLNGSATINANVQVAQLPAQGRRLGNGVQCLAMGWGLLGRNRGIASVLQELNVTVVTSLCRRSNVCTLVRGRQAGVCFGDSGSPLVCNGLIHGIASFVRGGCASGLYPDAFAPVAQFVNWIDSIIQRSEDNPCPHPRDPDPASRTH
Nature of the test: Fluorescence quenching binding affinity to HNE. Conditions: inhibitor 7.8–31.2 µM; for Kd: read-out: KA (association constant of the complex of enzyme and quencher) (converted); for KSV (Stern-Volmer quenching constant): λEx 260 nm, λEm 280–400 nm. The method, then: To measure fluorescence from the HNE enzyme, 10 μL of 0.01 unit/mL enzyme solution with 180 μL of Tris-HCl buffer (0.02 mM) was accurately added into the 96-well black immunoplates. Then, 10 μL of incremental concentrations (7.8–31.2 μΜ) of inhibitors were added into each well. All fluorescence spectra were measured from 280 to 400 nm with emission slits regulated to 2.0 nm, and the excitation wavelength was 260 nm. The Stern–Volmer quenching constant (KSV) was calculated using Equation (5). All experiments were conducted in triplicate, and the mean values were calculated. (5) […]=1+KSV[Q], where F0 and F are the fluorescence intensities in the absence and presence of quencher (Q). KSV is the Stern–Volmer quenching constant [LM^−1]. For static quenching, the correlation between the fluorescence intensity and the concentration of quencher for the series of reactions can be estimated by Equation (6). (6) log[(F0−F)/F]=logKA+nlog[Q]f.
F0 and F are the fluorescence intensities in the absence and presence of inhibitor; KA is the binding constant; n is the number of binding sites of the enzyme; Qf is the concentration of inhibitor.

The subject of test [6] is NF-κB p65 in LPS-stimulated RAW264.7 cells. Nature of the test: NF-κB nuclear translocation, immunocytochemistry. Type of test: cell-based, mouse. Conditions: pre-treatment 2 h prior to LPS 1 µg/mL for 16 h. The method, then: RAW264.7 cells cultured on round cover slips coated with poly-L-lysine were treated with triterpenoids (1 or 3 µg/mL) 2 h prior to LPS treatment, followed by LPS (1 µg/mL) for 16 h. The cells were washed with 1 x phosphate buffered saline (PBS) and fixed with 4% paraformaldehyde for 30 min. After washing the fixed cells with PBS, the cells were permeabilized with a blocking buffer (1% normal goat serum and 0.2% Triton X-100 in PBS) for 30 min at room temperature, and were incubated with an anti-NF-κB p65 antibody (1:200 dilution, Cell Signaling Technology, Danvers, MA, USA) at 4 °C overnight. After three washes in PBS, the cells were incubated in the dark for 1 h with the mixture of FITC-conjugated anti-rabbit IgG fluorescent secondary antibody diluted at 1:500 in PBS. Finally, the cells were stained with 2 µg/mL Hoechst for nuclei staining. The cells were washed with PBS, wet-mounted on glass slides, and observed using a confocal laser-scanning microscope (Olympus, Tokyo, Japan). The negative control (NC) was analyzed by omitting the primary antibody.

As to `CC(C)=CCCC(C)=CCC(O)C(C)=CCCC1(C)C(CCCO)C(=C(C)C=O)CCC1(C)O` (stereo not shown) [Compound 2, iridobelamal A], in test [1], the “LPS-upregulated IL-1β concentration” value was “noticeably decreased”. Also, the “effect on LPS-induced morphological changes” value in test [2] is “ameliorated”. Besides, in test [3], the “LPS-upregulated TNF-α mRNA level” value is recorded as “noticeably decreased”. In test [4], the “LPS-upregulated TNF-α concentration” value was “noticeably decreased”. Moreover, in test [5], the “n (number of binding sites of the enzyme)” value is given as 0.9734, the Kd is 50.3 µM and the “KSV (Stern-Volmer quenching constant)” value is 18160 L/mol. Moreover, the “NF-κB translocation to the nucleus (immunocytochemical staining)” value in test [6] was “suppressed”.
With `CC(C)=CCC/C(C)=C/C[C@@H](O)/C(C)=C/CC[C@@]1(C)[C@H](CCCO)/C(=C(/C)C=O)CC[C@]1(C)O` [Compound 1, isoiridogermanal], the “LPS-upregulated IL-1β concentration” value in test [1] is given as “noticeably decreased”. Besides, in test [2], the “effect on LPS-induced morphological changes” value is “ameliorated”. Moreover, the “LPS-upregulated TNF-α mRNA level” value in test [3] was “noticeably decreased”. The “LPS-upregulated TNF-α concentration” value in test [4] is listed as “noticeably decreased”. In test [5], the “n (number of binding sites of the enzyme)” value amounted to 1.0039, the Kd was 24.3 µM and the “KSV (Stern-Volmer quenching constant)” value came out at 41660 L/mol. Also, the “NF-κB translocation to the nucleus (immunocytochemical staining)” value in test [6] is “suppressed”.
